# Values of other authors as cited in patent US7041634B2, “Method of inhibiting immune system destruction of transplanted viable cells” (Emory University, priority 1995, dated 2006).
# Tested on: encapsulated hamster islet xenografts in NOD mice
# Settings: NOD recipients
smiles,measurement,value
N=C(N)NCCCCCCC(=O)NC(O)C(=O)NCCCCNCCCN (stereo not shown) [deoxyspergualin],prolongation of encapsulated islet xenografts,significant prolongation
